Source: patent US5032398A, “Selective modification of the catalytic subunit of pertussis toxin” (priority 1986, dated 1991)

Experiments:
pertussis toxin [1] = target: T1, pertussis toxin (Bordetella pertussis, UniProt P04977); assay: Inactivation of NADase activity by iodoacetate after different activator combinations (Example Seven); type: biochemical
Protocol: Pertussis toxin was incubated first at 37° C. for fifteen minutes in […] buffer A (100 mM Tris-HCl, pH 8.0 with 1 mM NaEDTA). EDTA was added to chelate divalent cations, which may promote oxidation of free --SH groups. During this incubation, DTT and ATP were present in concentrations of 1 mM each, and CHAPS was present in a concentration of 1 weight percent. Labelled iodoacetate was then added ([…], 12.5 mM), and the tube incubated on ice for twenty hours. The sample was then mixed with sodium dodecylsulfate and β-mercaptoethanol, heated at 95° C. for one minute, and electrophoresed. After electrophoresis, the gel was fixed, treated with Fluorohance (Research Products International), dried and used to expose x-ray film.
(§1) Pertussis toxin was incubated at 37° C. for fifteen minutes as described in Example Six, and then a second incubation was begun by adding 10 μl buffer A with or without 12.5 mM iodoacetate, mixing the contents of the tube and lowering the temperature to 30° C. After fifteen minutes, the tubes were shifted to an ice bath for ten minutes. A third incubation was then begun by adding 10 μl buffer A containing 200 mM DTT to those tubes containing iodoacetate to scavenge the iodoacetate. To those tubes not containing iodoacetate during the second incubation, a mixture of 200 mM DTT and 12.5 mM iodoacetate in buffer A, previously incubated for an hour on ice, was added. The third incubation was continued for one hour on ice.
(§2) The contents of each tube were then assayed for NADase activity by adding 40 μl of a reaction mix consisting of buffer A containing carbon-14 labelled NAD (final concentration in the 100 μl final volume was 25 μM), and 50 mM sodium chloride. Different reaction mixtures with various additions were used, so that in all tubes the final concentration of ATP was 1 mM and CHAPS was 1 weight percent. The assay was conducted at 37° C. for sixty minutes, and the released labelled nicotinimide was isolated and counted. The iced controls were formed by incubating pertussis toxin (1 μg) on ice in 10 mM sodium phosphate (pH 7) and 50 mM sodium chloride during the first three incubations. […] The first three incubations were done under a nitrogen atmosphere using degassed conditions, and the second and third incubations were done under subdued light.

pertussis toxin [2] = target: T1, pertussis toxin; assay: Inactivation of NADase activity by sulfhydryl reagents, 6 minutes or 18 hours at 0-4° (Example Eight); type: biochemical
Protocol: as §1, §2
The procedure followed in Example Seven was repeated for this study, except that N-ethylmaleimide, chloroacetamide or chloroacetate were substituted for iodoacetate. After the 30° C. incubation, the tubes were either incubated for six minutes or eighteen hours at 0°-4° C. before the 10 μl of 200 mM DTT (with or without quenched reagent) was added. Those tubes receiving the DTT after six minutes were incubated for nineteen hours at 0°-4° C. prior to the NADase assay. Those receiving the DTT after eighteen hours were incubated with DTT for one hour, as in Example Seven. The tubes were then assayed for NADase activity at the same time.

[3] = first incubation: ATP, CHAPS, 18 hours at 0-4°
[4] = first incubation: ATP, DTT, CHAPS, 6 minutes at 0-4°
[5] = first incubation: ATP, DTT, CHAPS, 18 hours at 0-4°
[6] = first incubation: CHAPS, 18 hours at 0-4°
[7] = first incubation: DTT, CHAPS, 18 hours at 0-4°
[8] = first incubation: none, 15 minutes at 30° C. followed by 18 hours at 0-4°

T1 sequence (P04977 35-269 limits assumed): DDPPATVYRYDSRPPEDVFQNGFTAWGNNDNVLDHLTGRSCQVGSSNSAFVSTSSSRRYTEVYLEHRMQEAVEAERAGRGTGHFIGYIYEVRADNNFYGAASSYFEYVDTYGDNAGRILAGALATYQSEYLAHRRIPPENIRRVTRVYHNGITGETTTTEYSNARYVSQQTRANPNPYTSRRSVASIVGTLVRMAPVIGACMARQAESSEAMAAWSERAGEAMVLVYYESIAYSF

**Q.** For `O=C(O)CI` [iodoacetate], which “Time to inactivate toxin” value (pertussis toxin [1]; at 30° C.) is on record?
**A.** within about fifteen minutes

**Q.** And the “Percent NADase activity relative to no addition to second incubation” value (pertussis toxin [1]; first incubation: ATP)?
**A.** 153

**Q.** And the “Percent NADase activity relative to no addition to second incubation” value (pertussis toxin [1]; first incubation: ATP, CHAPS)?
**A.** 80

**Q.** What about the “Percent NADase activity relative to no addition to second incubation” value (pertussis toxin [1]; first incubation: ATP, DTT) of the same compound?
**A.** 107

**Q.** And the “Percent NADase activity relative to no addition to second incubation” value (pertussis toxin [1]; first incubation: ATP, DTT, CHAPS)?
**A.** 14

**Q.** And the “Percent NADase activity relative to no addition to second incubation” value (pertussis toxin [1]; first incubation: CHAPS)?
**A.** 108

**Q.** And the “Percent NADase activity relative to no addition to second incubation” value (pertussis toxin [1]; first incubation: DTT)?
**A.** 123

**Q.** What about the “Percent NADase activity relative to no addition to second incubation” value (pertussis toxin [1]; first incubation: DTT, CHAPS) of the same compound?
**A.** 84

**Q.** What about the “Percent NADase activity relative to no addition to second incubation” value (pertussis toxin [1]; first incubation: none) of the same compound?
**A.** 87

**Q.** What about the NADase activity (pertussis toxin [2]; [3]) of the same compound?
**A.** 110 pmol per μg per hour

**Q.** And the “percent of activity with no addition to second incubation” value (shortened to “percent of activity with no addition”) (pertussis toxin [2]; [3])?
**A.** 85%

**Q.** What about the NADase activity (pertussis toxin [2]; [4]) of the same compound?
**A.** 17 pmol per μg per hour

**Q.** What about the “percent of activity with no addition” value (pertussis toxin [2]; [4]) of the same compound?
**A.** 17%

**Q.** What about the NADase activity (pertussis toxin [2]; [5]) of the same compound?
**A.** 3 pmol per μg per hour

**Q.** And the “percent of activity with no addition” value (pertussis toxin [2]; [5])?
**A.** 3%

**Q.** What about the NADase activity (pertussis toxin [2]; [6]) of the same compound?
**A.** 171 pmol per μg per hour

**Q.** What about the “percent of activity with no addition” value (pertussis toxin [2]; [6]) of the same compound?
**A.** 92%

**Q.** What about the NADase activity (pertussis toxin [2]; [7]) of the same compound?
**A.** 151 pmol per μg per hour

**Q.** What about the “percent of activity with no addition” value (pertussis toxin [2]; [7]) of the same compound?
**A.** 79%

**Q.** What about the NADase activity (pertussis toxin [2]; [8]) of the same compound?
**A.** 59 pmol per μg per hour

**Q.** And the “percent of activity with no addition” value (pertussis toxin [2]; [8])?
**A.** 116%
